Results as given in patent US20130303500A1, “COMPOUNDS AND METHODS FOR TREATING NEOPLASIA” (Medexis S.A., priority 2010, published 2013).

What was measured:
MCF7 (Breast) cells = assay: Sulforhodamine B (SRB) assay, MCF7; type: cell-based, human
Method: (§1) Sulforhodamine B (SRB) assays were performed according to standard National Cancer Institute Guidelines. Briefly, human tumor cells from different cancer panels were seeded into 96 well plates in […] (plating densities ranging from 5-40,000 cells/well depending on the doubling time of individual cell lines) in serum-containing media for twenty-four hours prior to the addition of the compounds to be assayed. After 24 hours, one plate of each cell line was fixed in situ with trichloroacetic acid (TCA). The fixed slides were used to determine the cell population for each cell line at the time of drug addition (Tz). Each compound to be tested was solubilized in dimethyl sulfoxide (DMSO) and the desired concentration was then added to the medium and diluted serially 1:10 to provide a total of five or ten drug concentrations plus control (in a final volume of 200 μL). The starting dose before any dilution was 100 uM for all compounds.
(§2) Following drug addition, each culture was incubated for forty-eight hours. The assay was terminated with the addition of cold TCA. The supernatant was discarded, and the plates were washed with tap water and air dried. SRB solution was then added to each well. After staining, the bound stain was solubilized and the absorbance was read on an automated plate reader at a wavelength of 515 nm.
(§3) Using the absorbance measurements [time zero, (Tz), control growth, (C), and test growth in the presence of drug at the ten concentration levels (Ti)], the percentage growth was calculated at each of the drug concentrations levels. Percentage growth inhibition was calculated as:
(§4) [(Ti−Tz)/(C−Tz)]×100 for concentrations for which Ti>/=Tz
(§5) [(Ti−Tz)/Tz]×100 for concentrations for which Ti<Tz.
(§6) Three dose response parameters were calculated for each experimental agent. Growth inhibition of 50% (GI50) was calculated from [(Ti−Tz)/(C−Tz)]×100=50, which was the drug concentration resulting in a 50% reduction in the net protein increase (as measured by SRB staining) in control cells during the drug. The drug concentration resulting in total growth inhibition (TGI) was calculated from Ti=Tz. The LC50 (concentration of drug resulting in a 50% reduction in the measured protein at the end of the drug treatment as compared to that at the beginning) indicating a net loss of cells following treatment was calculated from [(Ti−Tz)/Tz]×100=−50.
(§7) Values were calculated for each of these three parameters when the level of activity was reached; however, if the effect was not reached or was exceeded, the value for that parameter was expressed as greater or less than the maximum or minimum concentration tested.

[1] = target: Na+/K+-ATPase (Adenosine 5′-Triphosphatase isolated from porcine cerebral cortex); assay: Na+/K+-ATPase inhibitory activity, colorimetric Adenosine 5′-Triphosphatase Enzymatic Assay (Sigma); type: biochemical; conditions: enzyme from porcine cerebral cortex, 0.5 units/ml
Method: The compound inhibitory effect on ATPase activity was assessed in vitro using the colorimetric Adenosine 5′-Triphosphatase Enzymatic Assay of Sigma (St. Louis, Mo.) according to the manufacturer's instructions. This assay utilizes Adenosine 5′-Triphosphatase isolated from porcine cerebral cortex. Each reaction was performed in a final volume of […] using 0.5 units/ml enzyme in the presence of the different inhibitors. […] IC50 values were determined using the Origin® program software (OriginLab, Northampton, Mass.).

[2] = system: NCI-ADR-RES (Ovarian) cells; assay: Sulforhodamine B (SRB) assay, NCI-ADR-RES (multidrug resistant); type: cell-based, human; conditions: 48 h
Method: as §1, §2, §3, §4, §5, §6, §7

[3] = system: 7 different cell lines (lung, ovarian, prostate, CNS, breast, colon); assay: SRB assays across 7 cell lines; type: cell-based, human
Method: as §1, §2, §3, §4, §5, §6, §7
SRB provides a colorimetric measure of a compound's anti-cancer activity. SRB assays were performed with compounds of the invention in 7 different cell lines, which represent six different tumor panels (lung, ovarian, prostate, CNS, breast, colon).

## C[C@]12CCC(=NOC3CCNC3)CC1CCC1C2CC[C@]2(C)C(=O)C(F)CC12 (stereo partly drawn) [Compound 2, (5S,10S,13S,16R)-16a-fluoro-10,13-dimethyl-3-((S)-pyrrolidin-3-yloxyimino)-tetradecahydro-2H-cyclopenta[a]phenanthren-17(14H)-one]
MCF7 (Breast) cells; Homo sapiens, MCF7, 48 h, read-out: LC50
  CC50: 9780 nM
MCF7 (Breast) cells; Homo sapiens, MCF7 Breast, SRB, 48 h
  GI50: 21 nM
MCF7 (Breast) cells; MCF7 Breast, SRB, 48 h
  TGI: 478 nM
[1]
  IC50: 73 nM
[2]; Homo sapiens, NCI/ADR-RES, read-out: LC50
  CC50: 598 nM
[2]; Homo sapiens, NCI-ADR-RES Ovarian, SRB
  GI50: 29 nM
[2]; NCI-ADR-RES Ovarian, SRB
  TGI: 94 nM
[3]; Homo sapiens, read-out: LC50 values
  CC50: < 1000 nM
[3]; Homo sapiens, SRB, average over cell lines
  GI50: < 1000 nM
[3]; cell lines representative of lung, breast, CNS, prostate, ovarian, colon and renal neoplasias
  viability and/or cell proliferation of cell lines: reduced the viability and/or cell proliferation
